Columns and labels:
Conditions in all cases: trolox equivalents
Total ORAC = assay: Total ORAC
Excerpt: (§1) Antiviral EO compositions as described herein can provide antioxidant properties to a subject or host system. Antioxidants can enhance neutrophil function, improve fertility, reduce heat stress related pregnancy losses, reduce frequency of retained placentas, and reduce metritis in dairy cows. Oxygen radical absorbance capacity (ORAC) is the ability of a compound or composition to act as a proton donor and reducing agent for oxygen radicals. In particular, ORAC measures the ability of a compound or composition to act as a reducing agent for peroxyl radicals, hydroxyl radicals, peroxynitrite, superoxide anion, and singlet oxygen, the five most damaging oxygen radicals.
(§2) ORAC capabilities of EO compositions were tested Brunswick Labs, Massachusetts. Table 20 illustrates the antioxidant ability of several embodiments provided herein, as compared to an industry standard antioxidant, Vitamin E. Results are expressed as trolox equivalents (TE/100 g) for each composition: […]

ORAC, superoxide anion = assay: ORAC, superoxide anion
Excerpt: as §1, §2

ORAC, singlet oxygen = assay: ORAC, singlet oxygen
Excerpt: as §1, §2

ORAC, peroxynitrite = assay: ORAC, peroxynitrite
Excerpt: as §1, §2

ORAC, hydroxyl radical = assay: ORAC, hydroxyl radical
Excerpt: as §1, §2

ORAC, peroxyl radical = assay: ORAC, peroxyl radical
Excerpt: as §1, §2

Substance | Total ORAC (Total ORAC) | ORAC, Superoxide anion (ORAC, superoxide anion) | ORAC, Singlet oxygen (ORAC, singlet oxygen) | ORAC, Peroxynitrite (ORAC, peroxynitrite) | ORAC, Hydroxyl radical (ORAC, hydroxyl radical) | ORAC, Peroxyl radical (ORAC, peroxyl radical)
Arabinogalactan | 96400 TE/100 g | 16600 TE/100 g | 11600 TE/100 g | 1200 TE/100 g | 46400 TE/100 g | 20600 TE/100 g
Vitamin E [Natural Vitamin E] | 39200 TE/100 g | 0 TE/100 g | 37100 TE/100 g | 0 TE/100 g | 0 TE/100 g | 2100 TE/100 g

Reference: patent US12491225B2, “Antiviral compositions and methods” (RALCO NUTRITION, INC., priority 2014, dated 2025)
